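48-hour exposure; five concentrations; linearly interpolated endpoints. Here, GI50 denotes the concentration required for 50% inhibition of growth.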 Active and inactive are the calls of the source. Cut-off read from the data, not from the text of the source: active = GI50 up to about 1.1 µM and inactive = higher.
Columns and labels:
Experiment in all cases: DTP human tumour cell line panel, 48 h
IGROV-1 = tested on: IGROV-1
NCI-H460 = tested on: NCI-H460
HT-29 = tested on: HT-29
UO-31 = tested on: UO-31
SF-295 = tested on: SF-295
HCC 2998 = tested on: HCC 2998
OVCAR-3 = tested on: OVCAR-3
OVCAR-4 = tested on: OVCAR-4
SF-268 = tested on: SF-268
SK-MEL-2 = tested on: SK-MEL-2
T47D = tested on: T47D
MDA-MB-435 = tested on: MDA-MB-435
M14 = tested on: M14
SK-MEL-5 = tested on: SK-MEL-5
UACC-257 = tested on: UACC-257
UACC-62 = tested on: UACC-62
ACHN = tested on: ACHN
SK-MEL-28 = tested on: SK-MEL-28
DU-145 = tested on: DU-145
NCI-H522 = tested on: NCI-H522

SMILES | GI50 (IGROV-1) | GI50 (NCI-H460) | GI50 (HT-29) | GI50 (UO-31) | GI50 (SF-295) | GI50 (HCC 2998) | GI50 (OVCAR-3) | GI50 (OVCAR-4) | GI50 (SF-268) | GI50 (SK-MEL-2) | GI50 (T47D) | GI50 (MDA-MB-435) | GI50 (M14) | GI50 (SK-MEL-5) | GI50 (UACC-257) | GI50 (UACC-62) | GI50 (ACHN) | GI50 (SK-MEL-28) | GI50 (DU-145) | GI50 (NCI-H522)
COC(=O)N1CC2(CO)C3CC=C(C(=O)Nc4ccccc4Br)C2C1C3Br (configuration not stated) | > 50 µM (inactive) | > 50 µM (inactive) | > 50 µM (inactive) | > 50 µM (inactive) | > 50 µM (inactive) | > 50 µM (inactive) | > 50 µM (inactive) | > 50 µM (inactive) | > 50 µM (inactive) | > 50 µM (inactive) | > 50 µM (inactive) | > 50 µM (inactive) | > 50 µM (inactive) | > 50 µM (inactive) | > 50 µM (inactive) | > 50 µM (inactive) | > 50 µM (inactive) | > 50 µM (inactive) | > 50 µM (inactive) | –
COc1cc2c(c(OC)c1OC)-c1ccc(SC)cc1[C@H](OC(=O)c1ccccc1)CC2 | 0.145 µM (active) | 0.149 µM (active) | 0.122 µM (active) | 0.145 µM (active) | 0.0809 µM (active) | 0.32 µM (active) | 0.199 µM (active) | – | 0.214 µM (active) | > 100 µM (inactive) | 27.5 µM (inactive) | 0.0168 µM (active) | 0.0519 µM (active) | 0.0697 µM (active) | > 100 µM (inactive) | 0.0753 µM (active) | 0.189 µM (active) | 0.0571 µM (active) | 0.203 µM (active) | 0.0324 µM (active)
COCn1c2ccc(OC(C)=O)cc2c2c(=O)oc(N(C)C)nc21 | > 100 µM (inactive) | > 100 µM (inactive) | > 100 µM (inactive) | – | > 100 µM (inactive) | > 100 µM (inactive) | – | > 100 µM (inactive) | – | > 100 µM (inactive) | > 100 µM (inactive) | > 100 µM (inactive) | > 100 µM (inactive) | > 100 µM (inactive) | > 100 µM (inactive) | > 100 µM (inactive) | > 100 µM (inactive) | > 100 µM (inactive) | > 100 µM (inactive) | > 100 µM (inactive)
CCSC12CC3c4cccc5c4C(CN5C(=O)c4ccccc4)CC3(O1)N(C)C2=O (configuration not stated) | 31.3 µM (inactive) | 37.8 µM (inactive) | 42.6 µM (inactive) | 47.3 µM (inactive) | 45.6 µM (inactive) | – | 40.8 µM (inactive) | 36.9 µM (inactive) | 42.7 µM (inactive) | 40.3 µM (inactive) | 17.7 µM (inactive) | 34.8 µM (inactive) | 46.7 µM (inactive) | 14.7 µM (inactive) | 29.4 µM (inactive) | 22.5 µM (inactive) | 33.6 µM (inactive) | 48.4 µM (inactive) | 51.8 µM (inactive) | 25.1 µM (inactive)
S=C1Nc2ccccc2SC1c1ccccc1 (configuration not stated) | > 100 µM (inactive) | > 100 µM (inactive) | > 100 µM (inactive) | > 100 µM (inactive) | 16.4 µM (inactive) | – | 30.5 µM (inactive) | 46 µM (inactive) | 30.3 µM (inactive) | – | 72.6 µM (inactive) | > 100 µM (inactive) | > 100 µM (inactive) | > 100 µM (inactive) | > 100 µM (inactive) | > 100 µM (inactive) | 69.3 µM (inactive) | > 100 µM (inactive) | > 100 µM (inactive) | > 100 µM (inactive)
O=C1c2cccnc2S(=O)(=O)N1c1ccc(Br)cc1 | > 100 µM (inactive) | – | > 100 µM (inactive) | > 100 µM (inactive) | > 100 µM (inactive) | – | > 100 µM (inactive) | > 100 µM (inactive) | > 100 µM (inactive) | > 100 µM (inactive) | > 100 µM (inactive) | > 100 µM (inactive) | > 100 µM (inactive) | > 100 µM (inactive) | > 100 µM (inactive) | > 100 µM (inactive) | – | > 100 µM (inactive) | > 100 µM (inactive) | > 100 µM (inactive)
CCOC(=O)C(C)c1nc2cc(F)c(F)cc2[nH]c1=O (configuration not stated) | – | > 100 µM (inactive) | > 100 µM (inactive) | > 100 µM (inactive) | > 100 µM (inactive) | > 100 µM (inactive) | > 100 µM (inactive) | > 100 µM (inactive) | > 100 µM (inactive) | > 100 µM (inactive) | 22.9 µM (inactive) | > 100 µM (inactive) | > 100 µM (inactive) | > 100 µM (inactive) | > 100 µM (inactive) | > 100 µM (inactive) | > 100 µM (inactive) | > 100 µM (inactive) | > 100 µM (inactive) | –
Cn1cc(C=C(C#N)C#N)c(=O)n(C)c1=O | > 100 µM (inactive) | > 100 µM (inactive) | > 100 µM (inactive) | > 100 µM (inactive) | > 100 µM (inactive) | – | > 100 µM (inactive) | > 100 µM (inactive) | > 100 µM (inactive) | > 100 µM (inactive) | > 100 µM (inactive) | > 100 µM (inactive) | > 100 µM (inactive) | > 100 µM (inactive) | > 100 µM (inactive) | > 100 µM (inactive) | > 100 µM (inactive) | > 100 µM (inactive) | > 100 µM (inactive) | 37.6 µM (inactive)
CC(C)CC1N=C(OCc2ccccc2)OC1=O (configuration not stated) | > 100 µM (inactive) | > 100 µM (inactive) | > 100 µM (inactive) | > 100 µM (inactive) | > 100 µM (inactive) | – | > 100 µM (inactive) | > 100 µM (inactive) | 2.79 µM (inactive) | > 100 µM (inactive) | > 100 µM (inactive) | > 100 µM (inactive) | > 100 µM (inactive) | 45.7 µM (inactive) | > 100 µM (inactive) | – | > 100 µM (inactive) | > 100 µM (inactive) | > 100 µM (inactive) | > 100 µM (inactive)
O=c1oc2ccccc2cc1-c1cn2c(n1)sc1ccccc12 | > 100 µM (inactive) | > 100 µM (inactive) | 1.15 µM (inactive) | > 100 µM (inactive) | > 100 µM (inactive) | > 100 µM (inactive) | > 100 µM (inactive) | – | 52.6 µM (inactive) | > 100 µM (inactive) | > 100 µM (inactive) | 29.3 µM (inactive) | > 100 µM (inactive) | > 100 µM (inactive) | > 100 µM (inactive) | > 100 µM (inactive) | > 100 µM (inactive) | > 100 µM (inactive) | > 100 µM (inactive) | 26.1 µM (inactive)
Cc1ccc(S(=O)(=O)NC(CN)C(=O)O)cc1 (configuration not stated) | > 100 µM (inactive) | > 100 µM (inactive) | > 100 µM (inactive) | > 100 µM (inactive) | > 100 µM (inactive) | – | > 100 µM (inactive) | > 100 µM (inactive) | > 100 µM (inactive) | > 100 µM (inactive) | > 100 µM (inactive) | > 100 µM (inactive) | > 100 µM (inactive) | > 100 µM (inactive) | > 100 µM (inactive) | > 100 µM (inactive) | > 100 µM (inactive) | > 100 µM (inactive) | > 100 µM (inactive) | > 100 µM (inactive)
O=c1cc(CN2CCCCC2)nc2ccc3c(O)cc(CN4CCCCC4)nc3n12 | > 100 µM (inactive) | > 100 µM (inactive) | > 100 µM (inactive) | > 100 µM (inactive) | > 100 µM (inactive) | > 100 µM (inactive) | > 100 µM (inactive) | > 100 µM (inactive) | > 100 µM (inactive) | > 100 µM (inactive) | > 100 µM (inactive) | > 100 µM (inactive) | > 100 µM (inactive) | > 100 µM (inactive) | 88.9 µM (inactive) | > 100 µM (inactive) | > 100 µM (inactive) | > 100 µM (inactive) | > 100 µM (inactive) | –
CC1(C)CSCC(C)(C)C(=N/N)/C1=N\N | > 100 µM (inactive) | > 100 µM (inactive) | > 100 µM (inactive) | – | > 100 µM (inactive) | > 100 µM (inactive) | > 100 µM (inactive) | – | > 100 µM (inactive) | > 100 µM (inactive) | > 100 µM (inactive) | > 100 µM (inactive) | > 100 µM (inactive) | > 100 µM (inactive) | > 100 µM (inactive) | > 100 µM (inactive) | > 100 µM (inactive) | > 100 µM (inactive) | > 100 µM (inactive) | > 100 µM (inactive)
CC(=O)/C(=C/n1c(=S)sc2ccccc21)C(=O)Nc1ccccc1C | 59.8 µM (inactive) | > 100 µM (inactive) | > 100 µM (inactive) | 79.6 µM (inactive) | > 100 µM (inactive) | > 100 µM (inactive) | 59.4 µM (inactive) | > 100 µM (inactive) | > 100 µM (inactive) | > 100 µM (inactive) | 40.9 µM (inactive) | > 100 µM (inactive) | > 100 µM (inactive) | 39.7 µM (inactive) | > 100 µM (inactive) | > 100 µM (inactive) | > 100 µM (inactive) | > 100 µM (inactive) | > 100 µM (inactive) | –
CCCC(=O)OCC1OC(n2cc(F)c(=O)[nH]c2=O)C(F)C1OC(=O)CCC (configuration not stated) | 58.6 µM (inactive) | 3.78 µM (inactive) | 45.4 µM (inactive) | 69.7 µM (inactive) | 49.2 µM (inactive) | – | 41.5 µM (inactive) | 5.61 µM (inactive) | 8.53 µM (inactive) | > 100 µM (inactive) | > 100 µM (inactive) | 51.5 µM (inactive) | 36.3 µM (inactive) | 36.8 µM (inactive) | 85.7 µM (inactive) | 25.9 µM (inactive) | 25.6 µM (inactive) | > 100 µM (inactive) | 15.3 µM (inactive) | > 100 µM (inactive)

From ChEMBL document CHEMBL1201862, “PubChem BioAssay data set” (2004)
